Results on 26 molecules are retold here after patent publication US20240368161A1, “CYCLOPROPANECARBOXAMIDE-CONTAINING COMPOUNDS AND APPLICATION THEREOF” (CGENETECH (SUZHOU, CHINA) CO., LTD., priority 2022, published 2024).

The structures appear in SMILES notation. pIC50: −log10 of the molar value. Like-named read-outs stand apart in the source and are kept apart here. Where only a bound is given, the exact number is not on record here.

The target of series [1] is JAK1 (Homo sapiens (Human), UniProt P23458). Kind of series: JAK1 kinase inhibitory activity determination (HTRF Kinase-TK). It counts as biochemical. As to conditions: JAK1 0.32 ng/μL, ATP 4 μM, substrate 1 μM, 4 h. For orientation: TR-FRET usually uses a lanthanide donor and a delayed reading to cut background.
Chain of JAK1 (P23458 866-1154): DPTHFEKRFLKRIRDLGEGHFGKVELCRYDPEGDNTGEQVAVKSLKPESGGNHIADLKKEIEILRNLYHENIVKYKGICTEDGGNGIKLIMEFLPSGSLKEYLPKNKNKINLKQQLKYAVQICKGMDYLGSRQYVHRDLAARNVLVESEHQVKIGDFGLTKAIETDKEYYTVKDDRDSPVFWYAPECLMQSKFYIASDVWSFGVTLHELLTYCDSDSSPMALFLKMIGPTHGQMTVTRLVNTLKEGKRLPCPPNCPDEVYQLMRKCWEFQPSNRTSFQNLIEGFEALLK
Description: (§1) • JAK1: 0.32 ng/μL, ATP 4 M, substrate 1 μM, time 4 h • JAK2: 0.008 ng/μL, ATP 4 μM, substrate 1 M, time 2 h • JAK3: 0.1 ng/μL, ATP 3 μM, substrate 1 μM, time 3 h
(§2) The half-maximal inhibitory concentration (IC50) was fitted using GraphPad Prism 6 based on the kinase inhibition rates of the compound to be tested at different concentrations.
The target in series [2] is JAK2 (Homo sapiens (Human), UniProt O60674). Kind of series: JAK2 kinase inhibitory activity determination (HTRF Kinase-TK). The series is classed as biochemical. To be noted: JAK2 0.008 ng/μL, ATP 4 μM, substrate 1 μM, 2 h.
Chain of JAK2 (O60674 826-1132): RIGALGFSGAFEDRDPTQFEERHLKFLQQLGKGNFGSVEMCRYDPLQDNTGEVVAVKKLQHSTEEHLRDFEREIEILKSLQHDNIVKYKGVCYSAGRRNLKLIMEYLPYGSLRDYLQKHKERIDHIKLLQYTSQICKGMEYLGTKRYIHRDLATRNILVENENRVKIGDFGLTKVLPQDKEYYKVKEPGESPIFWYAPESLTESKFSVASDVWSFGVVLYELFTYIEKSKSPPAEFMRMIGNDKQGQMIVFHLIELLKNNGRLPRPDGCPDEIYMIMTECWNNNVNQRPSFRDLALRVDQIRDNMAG
Description: as §1, §2
Series [3] concerns the target JAK3 (Homo sapiens (Human), UniProt P52333). The series can be described thus: JAK3 kinase inhibitory activity determination (HTRF Kinase-TK). The series is classed as biochemical. As to conditions: JAK3 0.1 ng/μL, ATP 3 μM, substrate 1 μM, 3 h.
Description: as §1
At the end of incubation, HTRF665/620 signals were read on a multifunctional microplate reader.
as §2
The nature of series [4]: Oral pharmacokinetic determination in mice. It counts as in vivo, C57 mice. As to conditions: for AUC(0-inf) / AUC(0-t) / Cmax / Tmax / MRT last / MRT inf / half-life: mouse, male C57 mice, plasma; for MRT last: read-out: MRT(0-t); for MRT inf: read-out: MRT(0-∞); for half-life: read-out: T½ (converted). How it is done:
Three healthy male C57 mice, aged 6-8 weeks, were purchased from Shanghai Sippr-BK Laboratory Animal Co. Ltd. (Shanghai, China).
Mice were fasted overnight prior to oral administration, and food supply was resumed 4 h after administration with free access to water. […] blood sampling; approximately 30 μL of blood was collected from the tested animals at 0.125 h, 0.25 h, 0.5 h, 1 h, 2 h, 4 h, 8 h, and 24 h, respectively, after administration and placed in test tubes containing the anticoagulant sodium heparin, which were placed on ice until centrifugation, and within 15 min, centrifuged in a centrifuge at 6800 g for 6 min at 6-8° C., and within 1 h of blood collection/centrifugation, plasma was transferred to appropriately labeled tubes and stored frozen at about −80° C.
Mass spectrometry method: LC-MS/MS-19 (TQ5500) (SCIEX, USA), ion source: ESI source, detection mode: positive ion detection, scanning mode: multi-reaction monitoring (MRM) mode, m/z: 271.10/172.00 Da (Tolbutamide, internal standard).
To 10 μL of the plasma sample, was added 200 μL of internal standard working solution (Tolbutamide, 100 ng/mL), with vortex for 1 min, followed by centrifugation for 10 min at 18,000 g. 200 μL of a supernatant was transferred to a 96-well low volume plate, and 1 μL of the supernatant was taken and injected into LC-MS/MS for analysis.
Pharmacokinetic (PK) parameters were calculated using Phoenix WinNonlin 7.0 software, and oral pharmacokinetic parameters of mice including AUC, Cmax, Tmax, T½, etc., were estimated by the non-compartment model.

Chain of JAK3 (P52333 795-1124): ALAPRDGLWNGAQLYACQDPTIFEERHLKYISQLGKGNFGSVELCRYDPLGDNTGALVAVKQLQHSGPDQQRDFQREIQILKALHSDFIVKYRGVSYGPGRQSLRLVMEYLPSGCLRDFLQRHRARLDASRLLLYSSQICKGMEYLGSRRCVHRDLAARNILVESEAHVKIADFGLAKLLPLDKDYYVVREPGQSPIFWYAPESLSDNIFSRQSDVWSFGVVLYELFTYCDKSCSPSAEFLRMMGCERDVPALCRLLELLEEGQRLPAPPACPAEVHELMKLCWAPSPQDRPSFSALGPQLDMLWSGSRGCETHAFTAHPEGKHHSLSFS

A word on the pIC50: it is the IC50 on a negative log10 scale, so that one unit is a factor of ten. Higher therefore signals a small IC50. In the case of `N#CCC(C1CCCC1)n1cc(-c2cccc3nc(NC(=O)C4CC4)cn23)cn1` (centres unmarked) [Compound 1], the pIC50 in series [1] is 7.24; in series [2] it was 8.38.
For `N#CCC(C1CC1)n1cc(-c2cccc3nc(NC(=O)C4CC4)cn23)cn1` (centres unmarked) [Compound 2], the pIC50 was 7.11 in series [1] and 7.87 in series [2].
With `N#CCC(CC1CC1)n1cc(-c2cccc3nc(NC(=O)C4CC4)cn23)cn1` (centres unmarked) [Compound 3], the pIC50 in series [1] is 7.42; in series [2], 8.16.
In the case of `CCC(CC#N)n1cc(-c2cccc3nc(NC(=O)C4CC4)cn23)cn1` (centres unmarked) [Compound 4], the pIC50 in series [1] was 7.71; in series [2], 8.33.
The like results for `CCCC(CC#N)n1cc(-c2cccc3nc(NC(=O)C4CC4)cn23)cn1` (centres unmarked) [Compound 5] were, in that order, 7.85 and 8.74.
As for `COCC(CC#N)n1cc(-c2cccc3nc(NC(=O)C4CC4)cn23)cn1` (centres unmarked) [Compound 6], the pIC50 in series [1] is 7.31; in series [2], 8.02.
The matching figures for `CCCCC(CC#N)n1cc(-c2cccc3nc(NC(=O)C4CC4)cn23)cn1` (centres unmarked) [Compound 7]: 8.12 and 8.76.
Consider `COCCC(CC#N)n1cc(-c2cccc3nc(NC(=O)C4CC4)cn23)cn1` (centres unmarked) [Compound 9], for which the negative-log IC50 (pIC50) in series [1] was 7.55; in series [2], 7.87.
The matching figures for `N#CCC(CCC(F)(F)F)n1cc(-c2cccc3nc(NC(=O)C4CC4)cn23)cn1` (centres unmarked) [Compound 10]: 8.18 and 8.91.
As to `N#CCC(C1CCCC1)n1cc(-c2cccc3nc(NC(=O)C4CC4)nn23)cn1` (centres unmarked) [Compound 11], the values for the pIC50 in series [1] and in series [2] were 7.44 and 8.20, respectively.
For `N#CCC1(n2cc(-c3cccc4nc(NC(=O)C5CC5)cn34)cn2)CCC(F)(F)CC1` [Compound 12], the results for the pIC50 in series [1] and in series [2] were 8.00 and 9.15, respectively.
Turning to `N#CCC1(n2cc(-c3cccc4nc(NC(=O)C5CC5)cn34)cn2)CCC(C(F)(F)F)CC1` (centres unmarked) [Compound 13], the pIC50 was 8.08 in series [1], 9.10 in series [2] and 7.33 in series [3].
Consider `N#CCC1(n2cc(-c3cccc4nc(NC(=O)C5CC5)cn34)cn2)CCCCC1` [Compound 14], for which the pIC50 in series [1] is 6.94; in series [2] it was 8.17.
A word on the AUC(0-inf): it is the area under the concentration-time curve extrapolated to infinity. A low value points to low exposure. In general, AUC(0-t) refers to exposure summed from dosing to a finite time, without extrapolation to infinity. A higher AUC(0-t) goes with more exposure. Usually Cmax stands for the peak of the concentration-time curve. As a reminder, the Tmax is the time from dosing to the highest level. For `CS(=O)(=O)C1CN(Cc2ccc(-c3cccc4nc(NC(=O)C5CC5)cn34)cc2)C1` [Compound 15], in series [4] (mice, oral, unit dose comparison), the “systemic exposure (AUC) per unit dose compared to Filgotinib” value is “higher systemic exposure”. In series [4] (oral (gavage), dose 10 mg/kg), the area under the curve AUC(0-inf) amounted to 9880 ng·h/mL, the AUC(0-t) worked out at 9750 ng·h/mL, the Cmax turned out to be 6220 ng/mL and the Tmax stood at 0.29 h. For the same molecule, in series [4] (oral (gavage), dose 10 mg/kg), the MRT last is 1.6 h, the MRT inf turned out to be 1.7 h and the half-life was 1.31 h.
As for `O=C(Nc1nc2cccc(-c3ccc(OC4CCS(=O)(=O)CC4)cc3)n2n1)C1CC1` [Compound 19], the pIC50 in series [1] was 6.74; in series [2], 7.04; in series [3], 6.04.
For `O=C(Nc1cn2c(-c3ccc(ON4CC[S+]([O-])CC4)cc3)cccc2n1)C1CC1` [Compound 21], the pIC50 is 6.61 in series [1] and 6.23 in series [2].
Take `O=C(Nc1nc2cccc(-c3ccc(CN4CCS(=O)(=O)CC4)cc3)n2n1)C1(F)CC1` [Compound 24]: the negative-log IC50 (pIC50) in series [1] is 5.44; in series [2], 5.80; in series [3] it was less than 5.00.
The like results for `O=C(Nc1nc2cccc(-c3ccc(CN4CCS(=O)(=O)CC4)cc3)n2n1)C1CC1(F)F` (centres unmarked) [Compound 25] were, in that order, 6.23, 5.70 and 5.11.
The like results for `O=C(Nc1nc2cccc(-c3ccc(CN4CCS(=O)(=O)CC4)cc3)n2n1)C1C[C@H]1F` (some centres unmarked) [Compound 26] were, in that order, 5.90, 5.96 and 5.46.
The matching figures for `O=C(Nc1nc2cccc(-c3ccc(CN4CCS(=O)(=O)CC4)cc3)n2n1)C1C[C@@H]1F` (some centres unmarked) [Compound 27]: 5.97, 6.38 and 5.72.
For `O=C(Nc1cn2c(-c3ccc(CN4CCC(F)(F)CC4)cc3)cccc2n1)C1CC1` [Compound 28], the negative-log IC50 (pIC50) in series [1] is 7.58; in series [2] it was 7.62; in series [3], 7.02.
`O=C(Nc1cn2c(-c3ccc(CN4CCS(=O)(=O)CC4)cc3F)cccc2n1)C1CC1F` (centres unmarked) [Compound 29]: the negative logarithm of the IC50 (pIC50) is 7.05 in series [1], 6.77 in series [2] and 5.21 in series [3].
The matching figures for `CCS(=O)(=O)C1CCN(Cc2ccc(-c3cccc4nc(NC(=O)C5CC5)cn34)cc2)CC1` [Compound 30]: 6.41, 6.79 and 5.25.
The matching figures for `CC(C)S(=O)(=O)C1CCN(Cc2ccc(-c3cccc4nc(NC(=O)C5CC5)cn34)cc2)CC1` [Compound 32]: 6.02, 6.35 and 5.02.
The like results for `CC(C)CS(=O)(=O)C1CCN(Cc2ccc(-c3cccc4nc(NC(=O)C5CC5)cn34)cc2)CC1` [Compound 33] were, in that order, 6.17, 6.33 and 5.08.
On to `O=C(Nc1nc2cccc(-c3ccc(CN4CCS(=O)(=O)CC4)cc3)n2n1)C1CC1` [Filgotinib, reference compound], for which, in series [4] (oral, dose 5 mg/kg), the AUC(0-inf) came out at 2190 ng·h/mL, the AUC(0-t) was found to be 2120 ng·h/mL, the peak level (Cmax) was 1710 ng/mL and the time of peak concentration (Tmax) is 0.25 h. Also, in series [4] (oral, dose 5 mg/kg), the MRT last was 1.54 h, the MRT inf turned out to be 1.82 h and the half-life is 1.79 h.
